Values joined by “and” are separate entries in the source; they are usually repeats but may differ in a detail not shown here. Equal values may be shown once.
What was measured:
[1] = test system: Dengue virus (EDEN-3); details: cited from earlier work
[2] = Ivermectin concentration in the blood plasma of cattle after oral administration; format: in vivo; details: oral 600 μg/kg (per pure IVM)
Procedure: Cattle were divided into 2 groups of 1 animals each. Free Ivermectin (IVM) and compound of FORMULA I were orally administered to starving cattle. Blood samples were withdrawn from the jugular vein at appropriate time intervals after administration (0, 4, 20 h).
Fluorescence detection was set at an excitation and emission wavelength of 365 and 475 nm, respectively. The mobile phase consisted of acetonitrile, methanol and distilled water (50:45:5, v/v/v), running through the column at a flow rate of 1.5 ml/minute. The chromatographic analysis was operated at 25° C. Sample preparation (100 μl plasma) was done by a single stepprotein precipitation with acetonitrile, followed by derivatization with 100 μl of N-methylimidazole solution in acetonitrile (1:1, v/v) and 150 μl of trifluoroacetic anhydrous solution in acetonitrile (1:2, v/v). Calibration curve over the concentration range of 20-8,000 ng/ml plasma was linear with correlation coefficient better than 0.995.
All the blood samples were centrifuged at 3000 rpm for 15 min to obtain […]. Cattle plasma samples (100 μL each) were placed in 1.5 mL Eppendorf tubes, and then the samples underwent protein precipitation. The samples were vortexed for 1 min and centrifuged at 13,400 rpm for 10 min 20 μL of the supernatant was injected into the HPLC.

[3] = test system: Adenovirus (HAdV-C5); details: cited from earlier work
[4] = test system: Hendra (Hendra virus/Australia/Horse); details: estimated; read-out: est. EC50; cited from earlier work
[5] = test system: Caco-2 cell line; experiment: Permeability through a monolayer of Caco-2 cells; details: bottom of Transwell well, 3 μM (per pure IVM) in HBSS on top
[6] = test system: SARS-CoV-2; details: in vitro, inhibition of replication; cited from earlier work
[7] = test system: Influenza VLPs (avian influenza A); details: 10 μM; cited from earlier work
[8] = test system: West Nile virus (NY99); details: cited from earlier work
[9] = test system: Dengue virus (NGC); details: cited from earlier work
[10] = test system: Pseudorabies virus; details: estimated; read-out: est. EC50; cited from earlier work
[11] = test system: Dengue virus (EDEN-4); details: cited from earlier work
[12] = test system: Dengue virus (EDEN-2); details: cited from earlier work
[13] = test system: Zika virus (Asian/Cook Islands); details: cited from earlier work
[14] = test system: West Nile virus (MRM61C); details: cited from earlier work
[15] = standard tablet form, for 5 days; cited from earlier work
[16] = test system: Syrian hamsters; experiment: Oral toxicity of solid dispersion; format: in vivo; details: per pure ivermectin, FORMULA I compound per Example 1 No 2 (apple pectin 1:5)

In the case of `CCC(C)C1OC2(CCC1C)CC1CC(CC=C(C)C(OC3CC(OC)C(OC4CC(OC)C(O)C(C)O4)C(C)O3)C(C)C=CC=C3COC4C(O)C(C)=CC(C(=O)O1)C34O)O2` (centres unmarked) [ivermectin, Ivermectin], the EC50 [1] is given as 1700 nM, the “C1, 0 h (ivermectin concentration in plasma)” value ([2]; 0 h, FORMULA I compound per Example 1 No 1 (polyvinylpyrrolidone 1:10), IVM = milled free ivermectin) is given as 0 ± 0.15 ng/mL and the “C2, 4 h (ivermectin concentration in plasma)” value ([2]; 4 h, FORMULA I compound per Example 1 No 1) is given as 307.3 ± 46.1 ng/mL. For the same compound, the “C3, 20 h (ivermectin concentration in plasma)” value ([2]; 20 h, FORMULA I compound per Example 1 No 1) was 104.4 ± 15.6 ng/mL, the Cmax ([2]; FORMULA I compound per Example 1 No 1) was 350 ± 50 nM and the EC50 [3] was 2500 nM. For the same compound, the EC50 [4] was roughly 2000 nM, the “Concentrartion of IVM” value ([5]; 20 min, FORMULA I compound per Example 1 No 2 (apple pectin 1:5)) was 0.05 µg/mL and the “Concentrartion of IVM” value ([5]; 40 min, FORMULA I compound per Example 1 No 2) was 0.09 µg/mL. The “Concentrartion of IVM” value ([5]; 60 min, FORMULA I compound per Example 1 No 2) was 0.15 µg/mL, the “Concentrartion of IVM” value ([5]; 80 min, FORMULA I compound per Example 1 No 2) was 0.19 µg/mL and the “Concentrartion of IVM” value ([5]; 100 min, FORMULA I compound per Example 1 No 2) was 0.21 µg/mL. For the same compound, the “Concentrartion of IVM” value ([5]; 120 min, FORMULA I compound per Example 1 No 2) was 0.25 µg/mL, the EC50 [6] was 2400 nM and 2200 nM and 2800 nM and the EC90 [6] was 5 µM. For the same compound, the Inhibition [7] was 10 μM total inhibition, the EC50 [8] was 4 µM and the Inhibition ([9]; 50 μM) was “total inhibition”. For the same compound, the EC50 [9] was 400 nM and 600 nM, the EC50 [10] was roughly 800 nM and the EC50 [11] was 1900 nM. The EC50 [12] was 2100 nM and 1700 nM, the EC50 [13] was 1300 nM and 1600 nM and the EC50 [14] was 1000 nM and 500 nM. The “lung Cmax” value [15] was 0.4 to 0.9 µM and the LD50 [16] was 62 mg/kg.

Source: patent US20250213601A1 (priority 2022, published 2025)
